Holding throughout (settings): binder
For one test, the target named is T1, BRPF1 (Homo sapiens, UniProt P55201).
T1 sequence (P55201 1-1214): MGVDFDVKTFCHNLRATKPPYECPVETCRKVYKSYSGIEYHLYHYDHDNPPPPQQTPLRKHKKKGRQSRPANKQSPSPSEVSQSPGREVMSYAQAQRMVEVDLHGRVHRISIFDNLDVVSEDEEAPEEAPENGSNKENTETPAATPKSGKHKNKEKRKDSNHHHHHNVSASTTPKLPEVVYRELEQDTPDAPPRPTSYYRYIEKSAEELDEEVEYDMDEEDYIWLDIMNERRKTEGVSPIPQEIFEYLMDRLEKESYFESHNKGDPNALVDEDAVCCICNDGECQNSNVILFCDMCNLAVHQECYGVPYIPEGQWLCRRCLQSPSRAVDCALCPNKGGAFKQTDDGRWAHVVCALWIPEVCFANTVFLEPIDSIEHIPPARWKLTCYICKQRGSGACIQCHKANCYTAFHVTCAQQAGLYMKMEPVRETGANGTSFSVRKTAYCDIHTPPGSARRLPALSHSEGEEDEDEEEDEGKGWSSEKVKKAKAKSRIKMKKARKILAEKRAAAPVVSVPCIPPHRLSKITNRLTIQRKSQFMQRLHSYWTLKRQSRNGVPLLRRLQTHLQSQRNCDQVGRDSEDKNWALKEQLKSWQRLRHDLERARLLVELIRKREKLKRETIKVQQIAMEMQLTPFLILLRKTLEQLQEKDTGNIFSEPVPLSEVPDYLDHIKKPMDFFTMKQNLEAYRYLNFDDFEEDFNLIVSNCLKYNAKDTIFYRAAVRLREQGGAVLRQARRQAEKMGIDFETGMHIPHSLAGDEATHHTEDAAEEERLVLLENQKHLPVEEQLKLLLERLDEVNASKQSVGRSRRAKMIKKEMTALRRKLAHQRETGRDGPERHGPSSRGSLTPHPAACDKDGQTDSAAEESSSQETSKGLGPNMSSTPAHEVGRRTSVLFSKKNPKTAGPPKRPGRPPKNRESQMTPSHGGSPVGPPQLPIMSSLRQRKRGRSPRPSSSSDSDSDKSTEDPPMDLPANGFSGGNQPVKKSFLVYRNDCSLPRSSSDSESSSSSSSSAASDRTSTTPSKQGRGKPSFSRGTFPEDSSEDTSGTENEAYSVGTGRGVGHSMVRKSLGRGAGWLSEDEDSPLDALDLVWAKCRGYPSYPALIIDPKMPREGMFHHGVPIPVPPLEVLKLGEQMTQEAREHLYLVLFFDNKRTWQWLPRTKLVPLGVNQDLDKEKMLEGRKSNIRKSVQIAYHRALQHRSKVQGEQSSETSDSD

The target of another test is T2, MAP2K7 (Homo sapiens, UniProt O14733).
T2 sequence (O14733 1-419): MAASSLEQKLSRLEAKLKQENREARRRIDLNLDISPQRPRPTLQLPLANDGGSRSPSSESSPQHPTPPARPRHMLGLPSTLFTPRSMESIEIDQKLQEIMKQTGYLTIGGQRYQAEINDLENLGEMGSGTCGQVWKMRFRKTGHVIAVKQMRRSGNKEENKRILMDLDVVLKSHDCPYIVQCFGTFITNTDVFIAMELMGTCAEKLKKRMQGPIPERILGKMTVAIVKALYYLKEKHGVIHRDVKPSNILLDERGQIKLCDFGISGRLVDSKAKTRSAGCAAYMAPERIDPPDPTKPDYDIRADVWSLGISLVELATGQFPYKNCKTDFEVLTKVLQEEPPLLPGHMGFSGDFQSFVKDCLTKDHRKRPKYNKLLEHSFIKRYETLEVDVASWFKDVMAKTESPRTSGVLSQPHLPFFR

Another test deals with EphA4 (Homo sapiens, UniProt P54764).
The target of a further test is T3, NQO2A (Homo sapiens, UniProt P16083).
T3 sequence (P16083 1-231): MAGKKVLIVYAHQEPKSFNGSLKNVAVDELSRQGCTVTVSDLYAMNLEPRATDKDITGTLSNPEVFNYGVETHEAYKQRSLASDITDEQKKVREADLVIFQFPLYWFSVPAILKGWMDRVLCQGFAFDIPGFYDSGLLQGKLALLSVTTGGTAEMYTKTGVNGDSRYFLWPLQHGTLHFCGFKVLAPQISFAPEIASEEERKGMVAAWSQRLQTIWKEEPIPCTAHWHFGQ

A further test addresses MST4 (Homo sapiens, UniProt Q9P289).
The next test addresses T4, MST1 (Homo sapiens, UniProt Q13043).
T4 sequence (Q13043 1-487): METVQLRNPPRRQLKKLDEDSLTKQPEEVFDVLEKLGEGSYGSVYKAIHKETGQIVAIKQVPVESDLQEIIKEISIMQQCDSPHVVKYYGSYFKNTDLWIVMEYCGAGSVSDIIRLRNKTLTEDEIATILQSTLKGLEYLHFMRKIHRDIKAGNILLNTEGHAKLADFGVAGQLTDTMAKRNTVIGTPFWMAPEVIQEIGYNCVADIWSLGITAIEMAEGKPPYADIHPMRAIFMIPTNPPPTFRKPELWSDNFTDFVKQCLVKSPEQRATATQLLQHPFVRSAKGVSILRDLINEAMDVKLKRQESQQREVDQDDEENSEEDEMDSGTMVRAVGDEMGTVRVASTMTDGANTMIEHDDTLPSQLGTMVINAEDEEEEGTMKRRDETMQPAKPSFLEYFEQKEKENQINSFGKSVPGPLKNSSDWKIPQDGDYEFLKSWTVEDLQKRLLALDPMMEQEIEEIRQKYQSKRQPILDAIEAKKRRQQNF

Molecules are shown by their SMILES.

Sequence of EphA4 (P54764 whole entry): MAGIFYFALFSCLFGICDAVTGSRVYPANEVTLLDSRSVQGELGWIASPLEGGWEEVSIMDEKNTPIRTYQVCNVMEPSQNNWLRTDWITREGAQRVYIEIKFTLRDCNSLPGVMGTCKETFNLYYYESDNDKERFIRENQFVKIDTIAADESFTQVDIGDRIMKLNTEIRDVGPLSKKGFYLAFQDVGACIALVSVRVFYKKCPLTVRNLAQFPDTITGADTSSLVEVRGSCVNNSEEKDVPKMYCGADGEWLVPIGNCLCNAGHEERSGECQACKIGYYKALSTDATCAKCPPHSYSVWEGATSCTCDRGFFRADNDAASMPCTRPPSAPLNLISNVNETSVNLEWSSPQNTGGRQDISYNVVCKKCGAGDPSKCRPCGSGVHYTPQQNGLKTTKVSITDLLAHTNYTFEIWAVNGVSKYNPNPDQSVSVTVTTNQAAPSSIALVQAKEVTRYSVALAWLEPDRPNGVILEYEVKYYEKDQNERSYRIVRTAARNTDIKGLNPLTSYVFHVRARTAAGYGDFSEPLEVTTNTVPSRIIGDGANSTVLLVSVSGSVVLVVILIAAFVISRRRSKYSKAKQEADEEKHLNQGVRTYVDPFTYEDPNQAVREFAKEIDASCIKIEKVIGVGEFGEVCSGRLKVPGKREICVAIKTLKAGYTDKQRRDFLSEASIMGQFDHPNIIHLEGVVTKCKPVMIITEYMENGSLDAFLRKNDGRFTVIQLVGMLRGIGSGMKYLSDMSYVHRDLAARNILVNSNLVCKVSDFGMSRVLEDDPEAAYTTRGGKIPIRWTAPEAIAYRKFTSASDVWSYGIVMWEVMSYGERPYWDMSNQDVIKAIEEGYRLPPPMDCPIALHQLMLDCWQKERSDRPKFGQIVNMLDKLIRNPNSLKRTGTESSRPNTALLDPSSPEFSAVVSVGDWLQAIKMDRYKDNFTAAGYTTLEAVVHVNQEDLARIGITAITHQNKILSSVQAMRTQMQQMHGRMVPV
Sequence of MST4 (Q9P289 whole entry): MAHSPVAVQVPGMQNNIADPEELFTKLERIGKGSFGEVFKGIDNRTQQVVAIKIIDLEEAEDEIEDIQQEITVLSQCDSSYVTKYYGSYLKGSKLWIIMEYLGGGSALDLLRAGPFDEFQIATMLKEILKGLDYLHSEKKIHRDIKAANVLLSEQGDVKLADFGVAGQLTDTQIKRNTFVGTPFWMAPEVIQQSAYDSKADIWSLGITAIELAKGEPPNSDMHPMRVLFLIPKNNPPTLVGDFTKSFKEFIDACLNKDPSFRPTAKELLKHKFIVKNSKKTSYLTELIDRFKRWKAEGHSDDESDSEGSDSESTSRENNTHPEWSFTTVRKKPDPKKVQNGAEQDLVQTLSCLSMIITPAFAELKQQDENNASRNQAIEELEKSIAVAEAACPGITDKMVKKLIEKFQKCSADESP

`Cc1cccc(-c2ccc(-c3cc4cnc(NCCCc5ccc(N)cc5)nc4n(CCCCN)c3=O)c(Cl)c2)n1` [compound 25, 8-(4-Aminobutyl)-2-((3-(4-aminophenyl)propyl)amino)-6-(2-chloro-4-(6-methylpyridin-2-yl)phenyl)pyrido[2,3-d]pyrimidin-7(8H)-one]: the “ΔTm 25” value is -1.4 °C on BRPF1, 6.7 °C on MAP2K7, 1.8 °C on EphA4 and 0.5 °C at NQO2A.

For the compound `Cc1cccc(-c2ccc(-c3cc4cnc(NC(CO)CO)nc4n(CCCCN)c3=O)c(Cl)c2)n1` [compound 24, 8-(4-Aminobutyl)-6-(2-chloro-4-(6-methylpyridin-2-yl)phenyl)-2-((1,3-dihydroxypropan-2-yl)amino)pyrido[2,3-d]pyrimidin-7(8H)-one], the “ΔTm MR24 (24)” value on BRPF1 is -1.5 °C; at MAP2K7, 3.0 °C; at EphA4, -0.3 °C; at NQO2A it was 0.3 °C.

With `CNc1ncc2cc(-c3ccc(-c4cccc(C)n4)cc3Cl)c(=O)n(C[C@H]3CC[C@H](N)CC3)c2n1` [compound 23, 23], the “dTm MST4” value at MST4 is 8.2 °C. In addition, the “dTm MST1” value at MST1 is 7.9 °C. The “ΔTm 23” value on BRPF1 is -1.8 °C; at MAP2K7, 7.1 °C; at EphA4, 2.9 °C.

Regarding `Cc1cccc(-c2ccc(-c3cc4cnc(NCCCN5CCOCC5)nc4n(CCCCN)c3=O)c(Cl)c2)n1` [compound 26, MR26], the “ΔTm MR26 (26)” value at BRPF1 was -1.0 °C; on MAP2K7, 3.1 °C; on EphA4 it was 2.5 °C; at NQO2A, 0.1 °C.

With `CNc1ncc2cc(-c3ccc(-c4cccc(C)n4)cc3Cl)c(=O)n(CCC3CCNCC3)c2n1` [compound 22, 6-(2-Chloro-4-(6-methylpyridin-2-yl)phenyl)-2-(methylamino)-8-(2-(piperidin-4-yl)ethyl)pyrido[2,3-d]pyrimidin-7(8H)-one], on MST4, the “dTm MST4” value worked out at 7.8 °C. In addition, the “dTm MST1” value on MST1 amounted to 6.0 °C. In addition, the “ΔTm 22” value was -0.4 °C on BRPF1, 4.3 °C at MAP2K7, 2.5 °C at EphA4 and -0.1 °C on NQO2A.

Regarding `CNc1ncc2cc(-c3ccc(-c4cccc(C)n4)cc3Cl)c(=O)n(CCCCN)c2n1` [compound 20, MRLW5], at MST4, the “dTm MST4” value came to 11.4 °C. The “dTm MST1” value on MST1 was 5.6 °C.

For the origin of these results see doi:10.1101/2023.11.24.568596v1 (biorxiv, 2023).
